Data taken from US20250389737A1, “FACTOR Xa REAGENT” (Instrumentation Laboratory Company, priority 2024, published 2025).
Counter-ions that a name gives are not always drawn.

Assays:
factor Xa [1] = molecular target: T1, factor Xa (Homo sapiens, UniProt P00742); assay: chromogenic assay of the effects of guanidine sulfate and alkylated guanidines on factor Xa activity (FIG. 4); format: biochemical; details: 6 nkat/mL factor Xa in 20 mM HEPES pH 7.5, 1.5 mM substrate S-2732, mAbs/min at 405 nm, dilution series in water
Method: In this experiment, the effects of guanidine sulfate and the guanidine derivatives: 1-methylguanidine sulfate, 1,1-dimethylguanidine sulfate, 1,1-diethylguanidine, and N-benzyl, N-methylguanidine sulfate were analyzed using a chromogenic assay. A number of dilutions were prepared in water with guanidine or a guanidine derivative of the type described herein. 40 μL of each of the guanidine or guanidine derivatives were mixed for 20 s to 60 s with 40 μL of 6 nkat/mL factor Xa diluted in 20 mM HEPES, pH 7.5 buffer. After an incubation period of 150 s to 180 s, 100 μL of the factor Xa chromogenic substrate S-2732™ (1.5 mM) was added to each of the guanidine and factor Xa mixtures and each mixture was chromogenically measured at 405 nm mAbs/min after a 20 s delay.

factor Xa [2] = molecular target: T1, factor Xa; details: 6 nkat/mL factor Xa in 20 mM Hepes pH 7.5, 1.5 mM substrate S-2732, 37° C., mAbs/min at 405 nm, concentrations in mM
Method: In this experiment, activity of factor Xa in the presence of guanidine sulfate and its derivatives (e.g., 1-methylguanidine sulfate, 1,1-dimethylguanidine sulfate, 1,1-diethylguanidine, N-benzyl, N-methylguanidine sulfate, 1,1,3,3-tetramethylgunidine and 1,1-dimethylbiguanide HCl) was evaluated using a chromogenic assay. In the experiment, each guanidine derivative was dissolved in deionized (DI) water to a final concentration of 100 mM. A number of such guanidine dilutions were prepared. Guanidine derivative levels in the solutions were tested in triplicate at 37° C. as follows: 40 μL (microliters) of each guanidine derivative level was incubated for 20 seconds(s) to 60 s before 40 μL of 6 nkat/mL factor Xa in 20 mM Hepes pH 7.5 buffer was added to the reaction. After an incubation period of 150 s to 180 s, 100 μL of 1.5 mM factor Xa chromogenic substrate S-2732™ was added to the reaction and milli-absorbance per minute (mAbs/min) at 405 nm (nanometers) was measured after a 20 s delay.

factor Xa [3] = molecular target: T1, factor Xa; assay: substrate turnover rates at different factor Xa levels, 1,1-dimethylguanidine compared with NaCl (FIG. 6); format: biochemical; details: 22 mM 1,1-dimethylguanidine vs 33 mM NaCl, 1.5 mM S-2732, 37° C., 405 nm
Method: Guanidine derivatives modulate factor Xa enzymatic activity in a reaction, as explained previously, thereby slowing-down the reaction. As a result, greater amounts and/or concentrations of factor Xa can be used in a reaction when a guanidine derivative is incorporated into the reaction. In this experiment, factor Xa levels were tested in a reaction in triplicate at 37° C. as follows: 40 μL of factor Xa was incubated for 20 s to 60 s before 40 μL of 100 mM 1,1-dimethylguanidine or 150 mM NaCl in water was added to the reaction. After an incubation period of 150 s to 180 s, 100 μL of 1.5 mM factor Xa chromogenic substrate S-2732™ was added to the reaction and mAbs/min at 405 nm was measured after a 20 s delay. In FIG. 6, substrate turnover rates (e.g., coloring of the substrate) in the presence of 22 mM 1,1-dimethylguanidine 601 were compared to substrate turnover rates in the presence of 33 mM NaCl 602. As evident from FIG. 6, greater amounts and/or concentrations of factor Xa can be added to the reaction in the presence of 1,1-dimethylguanidine to produce the same substrate turnover rates relative to NaCl. […] Greater amounts and/or concentrations of factor Xa facilitate detection of factor Xa inhibitors or reversal of such inhibitors in an assay, as noted previously.

factor Xa [4] = molecular target: T1, factor Xa; assay: chromogenic factor Xa activity in a plasma sample containing dimethylguanidine, 9:1 sample to factor Xa ratio (FIG. 7); format: biochemical; details: 50 mM vs 25 mM dimethylguanidine, 1.5 mM S-2732, 37° C.
Method: In this experiment, 180 μL of a plasma sample containing dimethylguanidine (DMG) and 1.5 mM substrate S-2732™ were mixed with 20 μL of factor Xa (a 9:1 sample to factor Xa ratio). The activity of factor Xa was determined at 37° C. based on chromogenic activity of the substrate. The activity of factor Xa linearly correlates with the factor Xa concentration in the presence of dimethylguanidine. […] Thus, increasing the amount of dimethylguanidine in a sample reduces a rate of the reaction. In some implementations, dimethylguanidine can be added to a reaction at a concentration of up to about 500 mM.

T1 sequence (P00742 235-488 limits assumed): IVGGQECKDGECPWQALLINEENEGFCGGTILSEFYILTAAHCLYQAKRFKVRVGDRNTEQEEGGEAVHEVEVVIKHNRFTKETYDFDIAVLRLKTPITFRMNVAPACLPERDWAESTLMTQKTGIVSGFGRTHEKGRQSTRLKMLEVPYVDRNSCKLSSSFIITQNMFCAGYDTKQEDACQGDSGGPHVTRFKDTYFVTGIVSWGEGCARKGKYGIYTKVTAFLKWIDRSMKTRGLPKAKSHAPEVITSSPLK
T1 sequence (P00742 41-179 partner limits assumed): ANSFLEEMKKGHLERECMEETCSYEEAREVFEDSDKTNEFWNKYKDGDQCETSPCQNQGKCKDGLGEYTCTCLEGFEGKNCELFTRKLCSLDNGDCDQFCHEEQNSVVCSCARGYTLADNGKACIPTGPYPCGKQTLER

SMILES	extent of factor Xa inhibition (factor Xa [1])	factor Xa activity plotted against guanidine derivative or NaCl concentration (factor Xa [2])	other results
CCN(CC)C(=N)N.O=S(=O)(O)O [1,1-diethylguanidine sulfate]	largest extent of factor Xa inhibition	–	–
CN(C)C(=N)NC(=N)N [1,1-dimethyl-biguanide, reference compound]	–	modulate factor Xa dose-dependently, although less than 1-methylated guanidine sulfate	–
CN(C)C(=N)N.O=S(=O)(O)O [1,1-dimethylguanidine sulfate]	largest extent of factor Xa inhibition	–	–
CN(C)C(=N)N [1,1-dimethylguanidine]	–	–	substrate turnover rates (reaction rate) relative to NaCl (factor Xa [3]): slowed-down; rate of the factor Xa reaction (chromogenic activity) (factor Xa [4]): slows reaction of the factor Xa in a sample greater than 25 mM of dimethylguanidine
CNC(=N)N [1-methylguanidine sulfate]	reduced factor Xa inhibition as compared to the factor Xa inhibition of mixtures containing dialkylated guanidine derivatives	modulates factor Xa dose-dependently	–
CN(Cc1ccccc1)C(=N)N.O=S(=O)(O)O [N-benzyl N-methylguanidine sulfate]	reduced factor Xa inhibition as compared to the factor Xa inhibition of mixtures containing dialkylated guanidine derivatives	–	–
[Cl-].[Na+] [NaCl, reference compound]	–	activates factor Xa activity	–
N=C(N)N [guanidine sulfate]	least amount of reduction in factor Xa inhibition	modulate factor Xa dose-dependently, although less than 1-methylated guanidine sulfate	–
